In PMC8538957 (Pharmaceutics, 2021):

Molecular target: T1, UGT2B7 (UDP-glycosyltransferase) (Homo sapiens, UniProt P16662)
T1 construct: human liver microsomes encapsulated in hydrogel (HLM-Gel)
T1 sequence (P16662 24-529): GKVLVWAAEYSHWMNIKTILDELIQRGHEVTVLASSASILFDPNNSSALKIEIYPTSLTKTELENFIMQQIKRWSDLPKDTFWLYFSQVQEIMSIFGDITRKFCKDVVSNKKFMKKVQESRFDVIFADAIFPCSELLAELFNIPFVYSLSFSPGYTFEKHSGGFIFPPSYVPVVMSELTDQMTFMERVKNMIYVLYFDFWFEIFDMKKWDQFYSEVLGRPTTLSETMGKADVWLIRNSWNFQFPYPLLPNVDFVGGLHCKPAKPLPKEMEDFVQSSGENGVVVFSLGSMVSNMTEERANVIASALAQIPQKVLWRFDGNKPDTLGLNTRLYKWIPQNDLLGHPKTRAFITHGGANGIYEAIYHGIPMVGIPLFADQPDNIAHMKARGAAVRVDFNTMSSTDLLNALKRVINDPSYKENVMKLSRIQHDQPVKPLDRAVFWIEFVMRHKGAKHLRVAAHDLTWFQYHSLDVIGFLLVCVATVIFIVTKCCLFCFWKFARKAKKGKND
Assay: inhibition of AZT glucuronidation in human liver microsomes in the Bio-PK dynamic system, HPLC, Ki fitted by MATLAB model
Assay type: biochemical

Compound: OC(Cn1cncn1)(Cn1cncn1)c1ccc(F)cc1F [FCZ, fluconazole]
- Ki: 14 µM
